From PMC3789257 (Journal of the American Chemical Society, 2012)

How the values were obtained:
p53 mutant Y220C [1] = conditions: binding to the mutation-induced crevice; cited from earlier work
p53 mutant Y220C [2] = conditions: in vitro; cited from earlier work
T-p53-Y220C = T-p53-Y220C (Homo sapiens, UniProt P04637, M133L/N239Y/N268D/V203A/Y220C); assay: 1H/15N-HSQC NMR titration; assay type: binding; conditions: 20 °C, 75 μM protein
T-p53C-Y220C = T-p53C-Y220C (Homo sapiens, UniProt P04637, M133L/N239Y/N268D/V203A/Y220C); assay: Isothermal titration calorimetry; assay type: binding
Chain of T-p53C-Y220C (P04637 102-292 limits assumed, stated change not applied): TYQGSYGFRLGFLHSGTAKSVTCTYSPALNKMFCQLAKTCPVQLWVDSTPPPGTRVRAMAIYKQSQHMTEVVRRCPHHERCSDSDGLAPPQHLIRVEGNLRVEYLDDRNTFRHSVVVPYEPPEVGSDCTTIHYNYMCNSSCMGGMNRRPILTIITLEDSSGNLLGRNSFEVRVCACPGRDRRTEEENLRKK

Chain of T-p53-Y220C (P04637 102-292 limits assumed, stated change not applied): as the sequence (P04637 102-292 limits assumed, stated change not applied) above

CCn1c2ccccc2c2cc(CNC)ccc21 [PhiKan083]
Kd (p53 mutant Y220C [1]): 150 µM
effect on melting temperature of the protein (p53 mutant Y220C [2]): raises the melting temperature

CN1CCC(N(C)Cc2cc(I)cc(I)c2O)CC1 [compound 3, 2,4-diiodo-6-((methyl(1-methylpiperidin-4-yl)amino)methyl)phenol]
Kd (T-p53-Y220C): 184 ± 23 µM
Kd (T-p53C-Y220C): 225 µM
